# US10300026B2, “Use of dihydroxyacetone in preparation of anti-cancer medicaments” (priority 2015, dated 2019)
# Tests used:
# SH-SY5Y = assay: CellTiter-Glo cell viability, SH-SY5Y (human neuroblastoma cell); assay type: cell-based; settings: 72 hours, n=4, read-out: IC50
# Method: (§1) 15 g of the commercially available 1,3-dihydroxyacetone in the solid powder form was added into 100 mL of 5% glucose (infusion bottle), then filled into 100 bottles.
# (§2) After digesting the cells and counting (counting suspended cells directly), the cells were diluted to 1.25×10^5 cells/ml, inoculated into a 384-well plate (5000 cells/well) with 40 μl per well, centrifuged at 1500 rpm for 1 min, placed into the incubator and incubated overnight.
# (§3) The medicaments were diluted in gradient with a 5% glucose solution to 5×, respectively. Each well was dosed with 10 μl medicament, with 4 wells (n=4) for each concentration. The cell viability was measured with Luminescence Cell Viability Assay kit after incubating for 72 hours in an incubator.
# (§4) CellTiter-Glo reagent was added into each well, the volume of which is the same as that of medium. It was shaked on a shaker for 5 min, centrifuged at 1500 rpm for 1 min, and incubated in the dark at room temperature for 15 min. Then the chemiluminescence was detected with BMG PHERAstar.
# (§5) The cell viability was calculated by using the following formula: Cell viability (Viability %)=100%×(LUMsample to be measured−LUMblank)/(LUMsolvent control−LUMblank)
# (§6) The curve of Log[concentration] versus cell viability was fitted using Prism 6 to calculate IC50 of sample for each cell line.
# WIL2-S = assay: CellTiter-Glo cell viability, WIL2-S (human B lymphocyte); assay type: cell-based; settings: WIL2-S; 72 hours; n=4; read-out: IC50
# Method: as §1, §2, §3, §4, §5, §6
# BEL-7402 = assay: CellTiter-Glo cell viability, BEL-7402 (human hepatoma cell line); assay type: cell-based; settings: BEL-7402; 72 hours; n=4; read-out: IC50
# Method: as §1, §2, §3, §4, §5, §6
# RPMI8226 = assay: CellTiter-Glo cell viability, RPMI8226 (multiple myeloma); assay type: cell-based; settings: RPMI8226; 72 hours; n=4; read-out: IC50
# Method: as §1, §2, §3, §4, §5, §6
# T24 = assay: CellTiter-Glo cell viability, T24 (human bladder transitional cell carcinoma cell); assay type: cell-based; settings: T24; 72 hours; n=4; read-out: IC50
# Method: as §1, §2, §3, §4, §5, §6
# A549 = assay: CellTiter-Glo cell viability, A549 (human non-small cell lung cancer cell); assay type: cell-based; settings: A549; 72 hours; n=4; read-out: IC50
# Method: as §1, §2, §3, §4, §5, §6
# TT = assay: CellTiter-Glo cell viability, TT (human thyroid cancer cell); assay type: cell-based; settings: 72 hours, n=4, read-out: IC50
# Method: as §1, §2, §3, §4, §5, §6
# A375 = assay: CellTiter-Glo cell viability, A375 (human malignant melanoma cell); assay type: cell-based; settings: A375; 72 hours; n=4; read-out: IC50
# Method: as §1, §2, §3, §4, §5, §6
# A673 = assay: CellTiter-Glo cell viability, A673 (human rhabdomyoma cell); assay type: cell-based; settings: A673; 72 hours; n=4; read-out: IC50
# Method: as §1, §2, §3, §4, §5, §6
# PANC-1 = assay: CellTiter-Glo cell viability, PANC-1 (human pancreatic cancer cell line); assay type: cell-based; settings: PANC-1; 72 hours; n=4; read-out: IC50
# Method: as §1, §2, §3, §4, §5, §6
# HCCLM3 = assay: CellTiter-Glo cell viability, HCCLM3 (human high metastatic hepatoma cell); assay type: cell-based; settings: HCCLM3; 72 hours; n=4; read-out: IC50
# Method: as §1, §2, §3, §4, §5, §6
# DU145 = assay: CellTiter-Glo cell viability, DU145 (human prostate cancer cell); assay type: cell-based; settings: DU145; 72 hours; n=4; read-out: IC50
# Method: as §1, §2, §3, §4, §5, §6
# U87MG = assay: CellTiter-Glo cell viability, U87MG (human spongioblastoma cell line); assay type: cell-based; settings: U87MG; 72 hours; n=4; read-out: IC50
# Method: as §1, §2, §3, §4, §5, §6
# Calu-6 = assay: CellTiter-Glo cell viability, Calu-6 (human degenerative cancer cell); assay type: cell-based; settings: Calu-6; 72 hours; n=4; read-out: IC50
# Method: as §1, §2, §3, §4, §5, §6
# SW620 = assay: CellTiter-Glo cell viability, SW620 (human colon cancer cell); assay type: cell-based; settings: SW620; 72 hours; n=4; read-out: IC50
# Method: as §1, §2, §3, §4, §5, §6
# Caki-1 = assay: CellTiter-Glo cell viability, Caki-1 (human renal clear cell carcinoma skin metastatic cell); assay type: cell-based; settings: Caki-1; 72 hours; n=4; read-out: IC50
# Method: as §1, §2, §3, §4, §5, §6
# HCC1937 = assay: CellTiter-Glo cell viability, HCC1937 (human breast cancer cell); assay type: cell-based; settings: HCC1937; 72 hours; n=4; read-out: IC50
# Method: as §1, §2, §3, §4, §5, §6
# H460 = assay: CellTiter-Glo cell viability, H460 (human large cell lung cancer cell line); assay type: cell-based; settings: H460; 72 hours; n=4; read-out: IC50
# Method: as §1, §2, §3, §4, §5, §6
# HT29 = assay: CellTiter-Glo cell viability, HT29 (human colon cancer cell line); assay type: cell-based; settings: HT29; 72 hours; n=4; read-out: IC50
# Method: as §1, §2, §3, §4, §5, §6
# S180 = assay: CellTiter-Glo cell viability, S180 (S180 sarcoma cells); assay type: cell-based; settings: S180; 72 hours; n=4; read-out: IC50
# Method: as §1, §2, §3, §4, §5, §6
# HL-60 = assay: CellTiter-Glo cell viability, HL-60 (human leukemic cell line); assay type: cell-based; settings: HL-60; 72 hours; n=4; read-out: IC50
# Method: as §1, §2, §3, §4, §5, §6
# [1] = test system: human large cell lung cancer H460 cell transplantation tumor; assay: H460 cell transplantation tumor model in naked mice; assay type: in vivo, Balb/c-nude naked mice
# Method: Naked mice were subcutaneously inoculated with H460 cells (human large cell lung cancer cell line). When tumors grew to about 100 mm^3, 36 naked mice with similar tumor volume and good shape were selected from 70 naked mice, divided into 6 groups with 6 animals in each group;
# Cisplatin: 4 mg/kg, volume of injection was 0.1 mL/10 g, i.p, administration once every 5 days, three weeks in total;
# Cisplatin group: 4 mg/kg, volume of injection was 0.1 mL/10 g, i.p, administration once every 5 days, three weeks in total;
# Blank group: 0.9% sodium chloride injection, mode of administration was same as DHA group.
# 3.1.3 Naked mice were inoculated subcutaneously at the right side of back, 0.1 mL/mouse, i.e. each naked mouse was inoculated 2×10^6 cells;
# 3.2.1 When tumors grew to about 100 mm^3, 36 naked mice with similar tumor volume and good shape were selected from 70 naked mice, and divided into 6 groups with 6 animals in each group.
# The mixture was refrigerated at 4° C. when not used. […] 4 mL of 0.6 mg/mL cisplatin solution were measured and added with 2.0 mL physiological saline to formulate a 0.4 mg/mL (4 mg/kg) cisplatin solution. The solution was refrigerated at 4° C. when not used.
# The tumor volume and body weight were measured three times per week from the first day of administration. Naked mice were sacrificed on 22th day. The tumors were taken out, weighed and photographed. The tumor inhibition rate was calculated.
# The calculation formula is: TV=½×a×b^2, where a and b represents length and width, respectively.
# The calculation formula is: RTV=TVt/TV1, where TV1 is a tumor volume when being caged and administrated (i.e., d1), TVt is a tumor volume at each measurement.
# The calculation formula is: […]
# TRTV: RTV of treatment group; CRTV: RTV of blank control group.
# TTW: tumor weight of treatment group; CTW: tumor weight of blank control group; TW: tumor weight.
# [2] = D20, H460 tumor naked mice, cisplatin 4 mg/kg i.p. once every 5 days, DHA p.o. 0.1 mL/10 g bid
structure (smiles),measurement,setting,value
"N.N.[Cl][Pt][Cl] [DDP, cis-diammine platinum dichloride, reference compound]",IC50,SH-SY5Y,2.89 µM
same,IC50,WIL2-S,9.89 µM
same,IC50,BEL-7402,5.37 µM
same,IC50,RPMI8226,5.79 µM
same,IC50,T24,6.22 µM
same,IC50,A549,4.1 µM
same,IC50,TT,9.72 µM
same,IC50,A375,8.25 µM
same,IC50,A673,1.11 µM
same,IC50,PANC-1,22.4 µM
same,IC50,HCCLM3,183 µM
same,IC50,DU145,4.54 µM
same,IC50,U87MG,24 µM
same,IC50,Calu-6,220 µM
same,IC50,SW620,24.4 µM
same,IC50,Caki-1,13.1 µM
same,IC50,HCC1937,14.8 µM
same,IC50,H460,1.67 µM
same,IC50,HT29,48.6 µM
same,IC50,S180,0.26 µM
same,IC50,HL-60,1.82 µM
same,TV (mm^3) D1,"[1]; D1 (first day of administration), H460 tumor naked mice",90.30 ± 5.61 mm^3
same,Body weight (g) D1,"[1]; D1 (first day of administration), H460 tumor naked mice, cisplatin 4 mg/kg i.p. once every 5 days, DHA p.o. 0.1 mL/10 g bid",21.1 ± 0.9 g
same,Body weight (g) D20,[1]; [2],17.6 ± 0.7 g
same,TV (mm^3) D20,[1]; [2],972.1 ± 289.5 mm^3
same,Body temperature,[1]; H460 tumor naked mice,decreased
same,Effect of tumor inhibition,"[1]; H460 tumor naked mice, vs blank",significant effect of tumor inhibition
same,Body weight during the whole test,"[1]; H460 tumor naked mice, whole test",decreased significantly
same,Body weight decrease at the end of the test,"[1]; end of the test, H460 tumor naked mice",about 16.7%
same,Tumor Weight TW,"[1]; tumors taken out at sacrifice on 22th day, cisplatin 4 mg/kg i.p. once every 5 days, DHA p.o. 0.1 mL/10 g bid",0.65 ± 0.23 g
same,Tumor Weight Inhibition Rate IR (%),"[1]; vs blank control group tumor weight, cisplatin 4 mg/kg i.p. once every 5 days, DHA p.o. 0.1 mL/10 g bid",44.6%
